Laboratory results as given in publication PMC11303286, “In silico and in vitro chemometrics, cell toxicity and permeability of naringenin 8-sulphonate and derivatives” (Frontiers in Pharmacology, 2024).

Assays:
Caco-2 cells = conditions: ref Tian et al., 2009; cited from earlier work
[1] = tested on: HaCaT human keratinocyte cells; assay: MTT cell viability assay, HaCaT; type: cell-based; conditions: 24 h, compared to control
Procedure: (§1) MRC-5 human lung fibroblast cells (Sigma-Aldrich, St. Louis, MO, United States) were cultured in MEM, while HaCaT human keratinocyte cells (ATCC, Manassas, VA, United States) and Caco-2 human intestinal epithelial cells (American Type Culture Collection, LGC Standards S.L.U., Spain) were cultured in DMEM. Both medium were supplemented with 10% of FBS and 1% of penicillin/streptomycin. Cells were incubated in 75 cm^2 cell culture flasks, which were placed in an incubator at 37°C, with a humidified atmosphere of 5% CO2. For the experiments, cells were seeded for 24 h in 96-well plates. MRC-5 and Caco-2 were seeded at 20,000 cells/well and HaCaT were seeded at 15,000 cells/well.
(§2) Toxicity of compounds, at 50 and 100 μM, was assessed against non-cancerous cell lines through the MTT assay after 24 h of incubation, following the protocol described in [Macedo et al., (2023)], with slight modifications. Thus, cells were exposed to MTT for 2 h, in the case of MRC-5, and 1 h 30 min, in the case of HaCaT. This assay was also performed to evaluate the response of Caco-2 cells to compounds at concentrations from 125 to 1,000 μM during the permeability assay, these cells being incubated for 4 h with the samples and exposed to MTT for 2 h. Results were expressed as percentage of viability compared to the control and correspond to the mean of, at least, three independent experiments performed in triplicate.

[2] = tested on: MRC-5 human lung fibroblast cells; assay: MTT cell viability assay, MRC-5; type: cell-based; conditions: 24 h; for cell viability: compared to control
Procedure: as §1, §2

[3] = tested on: Caco-2 human intestinal epithelial cells; assay: MTT cell viability assay, Caco-2 (before permeability assay); type: cell-based; conditions: Caco-2, 4 h, concentrations until 1,000 μM
Procedure: as §1, §2
The ability of naringenin 8-sulphonate to cross biological barriers was tested using a Caco-2 permeability model. The first step for this assay was to test the possible impact of high concentrations of samples in Caco-2 cells during the time of the experiment. Thus, an MTT assay, using concentrations of naringenin, naringenin 4’-O-sulphate and naringenin 8-sulphonate until 1,000 μM, was performed.

Caco-2 cell monolayers = assay: Caco-2 permeability assay (Transwell); type: in vitro ADME, human; conditions: for P app, experimental: Caco-2 permeability model, 1,000 μM, 240 min time point; for percentage of the amount placed in the apical chamber found in the basolateral chamber: after 240 min, 1,000 μM, apical to basolateral; for P app class, experimental: classification ref Karakucuk et al., 2021
Procedure: (§3) Caco-2 cells were seeded for 21 days at 112,000 cells/well in Corning® 3460 Transwell® 12 mm Polyester Membrane Inserts (Corning Incorporated, ME, United States). At every other day, culture medium was replaced and the transepithelial electrical resistance was measured to ensure values above 400 ohms until the day of the assay, to guarantee membrane integrity. For quality control purposes, Lucifer Yellow was used at 100 μg mL^-1 in the day of the assay. Briefly, one of the inserts was incubated with Lucifer Yellow during 1 h and, after that, its concentration was measured in the basolateral chamber, based on fluorescence intensity (λexc = 485 nm and λem = 535 nm). Lucifer Yellow passage, from the apical to the basolateral chamber equal or lower than 3% was considered indicative of a well-defined cell barrier phenotypically translated as good membrane integrity.
(§4) Treatments were applied in the transwells apical chamber and the basolateral chamber was filled with HBSS with calcium (1.26 mM) and magnesium (0.81 mM). At specific timepoints, namely 10, 20, 30, 60, 90, 120 and 180 min, half of the volume from the basolateral chamber was collected and replaced by the same volume of HBSS. In the last time point, at 240 min, content of both apical and basolateral compartments was collected to calculate the final mass balance. Transwells were maintained in agitation at 50 rpm, 37°C and 5% CO2 between the timepoints.
(§5) Concentration of each analyte in the different compartments was determined by HPLC-DAD using a Gilson Medical Electronics HPLC system (Villiers le Bel, France), with a Spherisorb ODS® (250 × 4.6 mm, 5 μm particle size, 100 Å pore size) column (PSS831915, Waters, Dublin, Ireland). Elution was performed for 7 min, with a flow rate of 900 μL min^-1. A mixture of methanol: water-formic acid (1%) was used as mobile phase, in a proportion of 65:35 for naringenin and 47:53 for naringenin 4’-O-sulphate and naringenin 8-sulphonate. Quantifications were performed at 285 nm.
(§6) Results were obtained from three independent experiments and each sample was analysed in triplicate. Apparent permeability (P app ) coefficient (cm s^-1) was calculated based on the equation P app = ΔQ/Δt×(1/(A×C0)), where ΔQ/Δt represents the amount of compound over time (mol s^-1), A is the monolayer area (cm^2) and C0 (mol mL^-1) is the initial drug concentration of the apical side ([Nait et al., 2009]; [Silva et al., 2020]).

[4] = tested on: Caco-2 human intestinal epithelial cells; assay: Alkaline comet assay (DNA damage), Caco-2; conditions: for percentage of DNA in tail, first quartile / percentage of DNA in tail, third quartile / percentage of DNA in tail, median: Caco-2, 100 μM, 24 h; for percentage of DNA in tail, median: negative control 20.98; for genotoxicity: DNA fragmentation: Caco-2, alkaline comet assay, 100 μM
Procedure: Caco-2 cells were incubated for 24 h in 12 well plates at a density of 350,000 cells/well. After this, they were incubated with each sample and negative control for 24 h and collected using 500 μL of trypsin (0.25%)-ethylenediaminetetraacetic acid (EDTA) (0.038%), which was then inactivated with 1 mL of Hanks’ Balanced Salt Solution (HBSS). The cell suspension was centrifuged at 1,200 rpm during 8 min at room temperature, supernatant was discarded, and cells were resuspended in 100 μL of HBSS.
Electrophoresis was carried out to evaluate the extent of DNA fragmentation. For this, agarose-coated slides were prepared using an 1% agarose solution. A volume of 20 μL from the cell suspension was involved in 170 μL of 1% low gelling temperature agarose solution and applied to the slides, which were then placed at 4°C until solidification. Slides were submerged in a lysis solution (2.5 M NaCl, 0.1 M EDTA, 10 mM Tris-HCl, pH 10) with 1% Triton-X 100, at 4°C and sheltered from the light, for 105 min. After this, slides were submerged in the electrophoresis buffer (300 mM NaOH, 1 mM EDTA, pH 13) for 40 min. A Sub-Cell GT Horizontal Electrophoresis System 15 × 15 cm tray (Bio-Rad Laboratories Lda, Oeiras, Portugal) was used to run the electrophoresis at 25 V and 240 mA during 30 min in the dark. In the end of the electrophoresis, slides were submerged for three times in a neutralization solution (0.4 M Tris-HCl, pH 7.5), during 5 min each.
For the fluorescence microscopy analysis, DAPI was added for 15 min at 0.5 μg mL^-1, the slides being washed once with HBSS in the end. Images were acquired using a Nikon Eclipse Ts2R-FL inverted microscope with a Retiga R1 camera (01-RET-R1-RM) and CFI Plan Fluor ×10 DIC objective. DNA damage was calculated using the AutoComet algorithm ([Barbe et al., 2023]) by dividing the amount of fluorescence signal correspondent to the DNA content in the comet’s tail by the signal correspondent to the total DNA in the comet. MMS 500 μM, incubated for 30 min, was used as positive control for DNA fragmentation and consequent DNA tail formation.
Comet assay was performed to evaluate possible genotoxicity of compounds. […] The percentage of DNA in the tail may be used as a parameter to evaluate the damage on DNA ([Clementi et al., 2021]).

[5] = MTT cell viability assay, HaCaT; type: cell-based, human; conditions: human, HaCaT keratinocyte cells, compared to control
Procedure: as §1, §2

[6] = MTT cell viability assay, MRC-5; type: cell-based, human; conditions: human, MRC-5 lung fibroblast cells, MRC-5, 100 μM, compared to control
Procedure: as §1, §2

[7] = Caco-2 permeability assay (Transwell); type: in vitro ADME, human; conditions: human; Caco-2 permeability model, 1,000 μM, 240 min time point; read-out: P app, experimental
Procedure: as §3, §4, §5, §6

HT29 cells = tested on: HT29 cells; set-up: method as in Baranowska et al., 2021; conditions: concentrations up to 100 μM; ref Baranowska et al., 2021; cited from earlier work
MCF-7 = tested on: MCF-7; set-up: method as in Kocyigit et al., 2016; conditions: ref Kocyigit et al., 2016; cited from earlier work
HT-29 = tested on: HT-29; set-up: method as in Kocyigit et al., 2016; conditions: ref Kocyigit et al., 2016; cited from earlier work
PC-12 = tested on: PC-12; set-up: method as in Kocyigit et al., 2016; conditions: ref Kocyigit et al., 2016; cited from earlier work
L-929 = tested on: L-929; set-up: method as in Kocyigit et al., 2016; conditions: ref Kocyigit et al., 2016; cited from earlier work
[8] = tested on: human umbilical vein endothelial cells (HUVECs); set-up: method as in earlier work; conditions: ref Çeker et al., 2019; cited from earlier work

Row | Structure (SMILES) | reported P app (Caco-2 cells) [cm/s] | changes on cell viability [3] | P app, experimental (Caco-2 cell monolayers) [cm/s] | percentage of the amount placed in the apical chamber found in the basolateral chamber (Caco-2 cell monolayers) [%] | P app class, experimental (Caco-2 cell monolayers) | percentage of DNA in tail, first quartile [4] [%] | percentage of DNA in tail, third quartile [4] [%] | percentage of DNA in tail, median [4] [%] | genotoxicity: DNA fragmentation [4] | viability at 24 h, 50 µM [5] [%] | viability at 24 h, 100 µM [5] [%] | Papp A→B at 240 min, 1000 μM [7] [×10⁻⁶ cm/s] | also measured
1 | O=c1c(O)c(-c2cc(O)c(O)c(O)c2)oc2cc(O)cc(O)c12 [myricetin] | 1.7e-06 |  |  |  |  |  |  |  |  |  |  |  | 
2 | O=C1C[C@@H](c2ccc(O)cc2)Oc2c1c(O)cc(O)c2S(=O)(=O)O [naringenin 8-sulphonate] |  | no significant changes on cell viability | 2.68e-06 | 10.41 | → (moderate P app) | 7.25 | 66.61 | 31.18 | caused significant DNA fragmentation |  |  |  | cell viability ([1]; 50 μM): 92.99%; cell viability ([1]; 100 μM): 91.95%; cell viability ([2]; MRC-5, 50 μM): 94.77%; cell viability ([2]; MRC-5, 100 μM): 94.71%
3 | O=C1C[C@@H](c2ccc(OS(=O)(=O)O)cc2)Oc2cc(O)cc(O)c21 [naringenin 4’-O-sulphate] |  | no significant changes on cell viability | 3.45e-06 | 12.73 | → (moderate P app) | 4.33 | 33.90 | 15.89 | did not | 95.4 | 89.2 | 3.45 | viability at 24 h, 100 µM [6]: 81.5%
4 | O=c1c(O)c(-c2ccc(O)cc2O)oc2cc(O)cc(O)c12 [morin] | 6.2e-07 |  |  |  |  |  |  |  |  |  |  |  | 
5 | O=C1C[C@@H](c2ccc(O)cc2)Oc2cc(O)cc(O)c21 [naringenin] |  | no significant changes on cell viability | 8.29e-06 | 32.01 | → (moderate P app) | 14.24 | 63.36 | 33.07 | caused significant DNA fragmentation | 93.2 | 91.9 | 8.29 | effect on cell viability ([2]; MRC-5, 50 and 100 μM): did not elicit any significant decrease; impact on DNA integrity (HT29 cells): no impact on DNA integrity; DNA damage (MCF-7): able to cause DNA damage; DNA damage (HT-29): able to cause DNA damage; DNA damage (PC-12): able to cause DNA damage; DNA damage (L-929): able to cause DNA damage; concentration causing the best antigenotoxic effects [8]: 8 µM; concentrations causing DNA damage [8]: ≥ 50 µM
